Data on 2 compounds can be found in patent US20260274798A1, “PENTAMIDINE ANALOGUE POLYMORPHS, FORMULATIONS, AND METHODS THEREOF” (AURANSA INC., priority 2023, published 2026).

For orientation: solubility means the dissolved amount per volume that the medium holds. Low readings indicate little dissolved substance, high ones much dissolved substance.

Assay type in all cases: physicochemical
A short description of data set [1]: Dynamic vapour sorption (DVS) with post-DVS XRPD. The conditions noted are these: for form of recovered solid by post-DVS XRPD: after DVS cycles. How it is done:
Approximately, 10-20 mg of sample was placed into a mesh vapour sorption balance pan and loaded into a DVS Intrinsic dynamic vapour sorption balance by Surface Measurement Systems. The sample was subjected to a ramping profile from 40-90% relative humidity (RH) at 10% increments, maintaining the sample at each step until a stable weight had been achieved (dm/dt 0.004%, minimum step length 30 minutes, maximum step length 500 minutes) at 25° C. After completion of the sorption cycle, the sample was dried using the same procedure to 0% RH and then a second sorption cycle back to 40% RH. Two cycles were performed. The weight change during the sorption/desorption cycles were plotted, allowing for the hygroscopic nature of the sample to be determined. XRPD analysis was then carried out on any solid retained.

A short description of data set [2]: Thermodynamic solubility in water and a pH 7.4 phosphate buffer. The conditions noted are these: slurry agitated at ambient ca. 24 hours, HPLC, diacetate. How it is done: (§1) 25.6 mL of 2-propanol was added to the lyophilized Compound A diacetate salt to form a slurry. The slurry was then temperature cycled between ambient and 40° C. in 4 hour cycles with agitation for ca. 24 hours. The slurry was then filtered and the isolated solids collected into a scintillation vial. A subsample was analyzed by XRPD and the vial was left uncapped to allow the solids to […] at ambient for ca. 24 hours. The material was then re-analyzed by XRPD post-drying and fully characterized using the following techniques: TG/DSC, DSC, DVS with post-DVS XRPD analysis, PLM, FT-IR, ^1H NMR, Purity by HPLC, TG/DSC with post TG/DSC XRPD analysis, and 7 Day Stability Assessment (ca. 10 mg of the material was stored at 40° C./75% RH. 80° C. and ambient light and humidity for 1 week. The solids were then analyzed by XRPD and purity obtained by HPLC). Thermodynamic solubility in water and a pH 7.4 phosphate buffer (The appropriate media was added in 100 μL aliquots to ca. 20 mg of the material to form a slurry. The samples were then sealed and agitated at ambient for ca. 24 hours before being centrifuge filtered. The isolated solids were analyzed by XRPD and the concentration of the mother liquors determined by HPLC).
The material appears highly insoluble in the phosphate buffer with all Forms having a solubility of 0.3 mg/mL except from Form 2 which has a solubility of 0.2 mg/mL.

Data set [3] can be described thus: 7 Day Stability Assessment (XRPD form and HPLC purity after storage). The conditions noted are these: diacetate; for one-week stability: form by XRPD: 1 week (Form 1: 2 and 7 days). How it is done:
as §1

The nature of data set [4]: Variable humidity X-ray powder diffraction (VH-XRPD). The conditions noted are these: 30° C. How it is done: XRPD analysis was carried out on a Philips X'Pert Pro Multipurpose diffractometer equipped with a humidity chamber. The samples were scanned between 4 and 36 °2θ using Cu K radiation (α1=1.54060 A; α2=1.54443 A; β=1.39225 A; α1:α2 ratio=0.5) running in Bragg-Brentano geometry (step size 0.008 °2θ) using 40 kV/40 mA generator settings. Measurements were performed at 30° C. during the humidity profile described below: • Initial scan at 40% RH • Humidity increased to 90% RH for 105 minutes (scan after 5 and 105 minutes) • Humidity decreased to 40% RH for 10 minutes (scan after 5 minutes) • Humidity decreased to 5% RH for 60 minutes (scan taken after 60 minutes) • Humidity decreased to 0% RH for 17 hours (scan taken after 17 hours) • Humidity increased to 40% RH for 60 minutes (scan taken at 30 and 60 minutes) • Humidity increased to 60% RH for 105 minutes (scan taken at 5 and 105 minutes) • Humidity increased to 80% RH for 60 minutes (scan taken at 5 and 55 minutes)

Where [5] appears, read: ambient temperature and humidity.

Molecules are shown by their SMILES. Entries after “also recorded” stand apart in the source; their conditions may differ.

Turning to `CC(=O)O.CC(=O)O.N=C(N)c1ccc(OCCCCCOc2ccc(C(=N)N)nc2)cc1` [Form 9, 5-((5-(4-carbamimidoylphenoxy)pentyl)oxy)picolinimidamide diacetate], the “mass uptake at 90% RH” value in data set [1] (DVS, 25° C., 90% RH, diacetate) is reported as 8%. In addition, the “hygroscopicity by DVS” value in data set [1] (DVS, 25° C., diacetate) is on record as “hygroscopic”. The “form of recovered solid by post-DVS XRPD” value in data set [1] (25° C., diacetate) was “mixture of phases with peaks matching Form 9 and new peaks”. Also, in data set [1] (below 10% RH, 25° C.), the “weight loss on dehydration during DVS” value was determined as 7.3 wt. %. In addition, the “weight increase on form change during DVS” value in data set [1] (first sorption cycle at 80% RH, 25° C.) was found to be 5.2 wt. %. In addition, the “form change during DVS” value in data set [1] (first sorption cycle at 80% RH, 25° C., diacetate) was “form change to Form 2; also recorded: convert to Form 2”. In addition, the “solubility” value amounted to 44.0 mg/mL in data set [2] (Water) and 0.3 mg/mL in data set [2] (pH 7.4 Phosphate Buffer). The “one-week stability: form by XRPD” value in data set [3] (40° C./75% RH) was “remained unchanged by XRPD”; in data set [3] (80° C.), “convert to Form 1”; in data set [3] (setting [5]) it was “remained unchanged by XRPD”. Besides, in data set [3] (form by XRPD after storage at 40° C./75% RH, ambient or 80° C.), the “1 Week Stability” value is “Converts to pattern 1 at 80 °C”. Besides, the “form by VH-XRPD” value in data set [4] (90% RH) is “convert to Form 2”; in data set [4] (drying at 0% RH) it was “becomes poorly crystalline”.

In the case of `CC(=O)O.CC(=O)O.N=C(N)c1ccc(OCCCCCOc2ccc(C(=N)N)nc2)cc1` [Form 8, 5-((5-(4-carbamimidoylphenoxy)pentyl)oxy)picolinimidamide diacetate], in data set [1] (25° C., diacetate), the “form of recovered solid by post-DVS XRPD” value was “conversion of Form 8 to Form 1”. In addition, the “form conversion during DVS” value in data set [1] (at 50% RH, 25° C., diacetate) was “desolvate and convert to Form 1”. The “weight loss on form conversion during DVS” value in data set [1] (at 50% RH, 25° C., diacetate) stood at 8.2 wt. %. In addition, in data set [1] (at 90% RH, diacetate), the DVS mass increase entry is listed as “hygroscopic with a 1.6% mass”. The entries for the “solubility” value in data set [2] (Water) and in data set [2] (pH 7.4 Phosphate Buffer) were 38.7 mg/mL and 0.3 mg/mL, respectively. For the same compound, the “one-week stability: form by XRPD” value in data set [3] (40° C./75% RH) is given as “convert to Form 1”; in data set [3] (80° C.), “no change in form”; in data set [3] (setting [5]), “convert to Form 1; also recorded: partial conversion to Form 1”.
